Experimental data: article PMC7051831 (ACS chemical biology, 2019)
“Also recorded” adds a separate entry of the source. Read-outs that look alike come from different tables or passages of the source.

Assays:
interleukin-1β (IL-1β) [1] = biological target: T1, interleukin-1β (IL-1β) (Homo sapiens, UniProt P01584); type: binding; details: IL-1β in LDAO/10MAG reverse micelles; for extent of binding across the protein surface (in words): Figure 1
[2] = cited from earlier work
[3] = alkane/water partitioning by simple NMR method; type: physicochemical; details: alkane (pentane)/water partitioning
interleukin-1β (IL-1β) [4] = biological target: T1, interleukin-1β (IL-1β); test: ethanol titration under standard bulk conditions compared with RM titration

T1 sequence (P01584 117-269): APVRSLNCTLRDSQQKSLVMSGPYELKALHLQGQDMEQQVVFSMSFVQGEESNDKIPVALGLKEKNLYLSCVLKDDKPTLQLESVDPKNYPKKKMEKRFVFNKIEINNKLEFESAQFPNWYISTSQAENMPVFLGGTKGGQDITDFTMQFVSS

SMILES	binding affinity (in words) (interleukin-1β (IL-1β) [1])	extent of binding across the protein surface (in words) (interleukin-1β (IL-1β) [1])	further results
CNC(C)=O [N-methylacetamide]	relatively weak binding affinities; also recorded: more diffuse and weak	relatively sparse binding across the protein surface	–
CCCCCCCCCCCC[N+](C)(C)[O-] [LDAO]	–	–	pKa [2]: ~ 5
CN [methylammonium]	–	bind at a larger number of sites	–
CC#N [acetonitrile]	more diffuse and weak	relatively sparse binding across the protein surface	binding affinity (in words) (interleukin-1β (IL-1β) [1]; listed as Acetonitrile): relatively weak binding affinities; fraction of molecules retained in the RM [3]: over one-third
c1cncnc1 [pyrimidine]	–	bind at a larger number of sites	fraction of molecules retained in the RM [3]: over one-third
c1c[nH]cn1 [imidazole]	more specific and with a relatively higher affinity	bind at a larger number of sites	–
CCO [ethanol]	more specific and with a relatively higher affinity	binding is limited to fewer sites	binding affinity (in words) (interleukin-1β (IL-1β) [1]; listed as Ethanol): relatively high binding affinity within a narrow Kd range; binding in RMs compared with bulk (in words) (interleukin-1β (IL-1β) [4]): binds slightly more weakly to the protein in RMs than in bulk
